The text below walks through data of US20250091989A1, “SMALL MOLECULE PROTEIN SYNTHESIS MODULATORS” (Interdict Bio, Inc., priority 2023, published 2025).

Assay type in all cases: biochemical
What all share (settings): HeLa S3 lysate, sfGFP/mCherry ratio, 2 hrs at 30° C.

Assay [1] deals with KRAS G12D. The assay is described as follows: In vitro transcription-translation (IVTT) reporter assay, KRAS G12D test sequence. The source says:
(§1) All reporter constructs have been cloned into the pT7CFE1-CHis plasmid (ThermoFisher #88860) using Gibson assembly procedures (NEB #E2611L). The parental pT7CFE1-CHis plasmid contains an EMCV IRES at the 5′UTR for translation initiation, a multiple-cloning site (MCS) for gene insertion, an optional C-terminal His-epitope tag, and polyA sequence in the 3′UTR to regulate mRNA stability. All reporters are designed to be inserted at the MCS to include a red fluorescent protein (mCherry), P2A self-cleaving peptide which releases the preceding mCherry protein product, and a fusion open reading frame containing a 3×FLAG epitope, a peptide sequence of interest (TEST), and green fluorescent protein (sfGFP).
(§2) Construct Plasmid Preparation: All plasmids are isolated from MACH1 cells (ThermoFisher) grown overnight in ampicillin-containing luria broth, and purified using ZymoPure Express Plasmid Midiprep Kit (Zymo Research). Constructs are sequenced verified and diluted to a working concentration of 110 ng/μL.
(§3) HeLa S3 Lysate Preparation: HeLa S3 cell pellets are acquired from Ipracell/Ipratech (Belgium) and shipped as 4 mL frozen cell pellets on dry ice for storage at −80° C. until use. The procedure for lysate preparation is as follows. Prepare 1× Lysis Buffer, cold and stored on ice:
(§4) Each preparation takes 8 cell pellets (4 ml packed volume each, approximately 1.0×10^9 cells per pellet). Thaw cell pellets from −80° C. on ice for 90 mins. Lay pellets horizontally on top of the ice and rotate every 30 mins to ensure even thawing. Once thawed, add 4 mL of cold lysis buffer to each pellet, and using a serological pipet, gently pipet up and down to break up clumps. Incubate resuspended cells in ice for an additional 30 mins (plunged into ice). During 30 min incubation, rinse and RNase-zap (Ambion) glass dounces (use loose pestle “A”), gently dry and place on ice until needed. Prepare RNase-free Eppendorf tubes for spinning and for batch storage. Add batch labels to 1.5-1.7 mL RNase-free microcentrifuge tubes (labeling scheme below). Each batch will have an extra 1.5-1.7 mL RNase-free microcentrifuge tube for 40 μL of lysate, label the top of this tube (labeling scheme below). After 30 min incubation, transfer all 8 mL of cell pellet to dounce. Cell lysis is complete after douncing 100 times. Aliquot cell lysis into 1.5-1.7 mL temporary-microcentrifuge tubes. Place tubes in centrifuge with “fins” out, and spin at 1,200 xg for 5 mins. After the first spin use a 1 mL pipet to resuspend each tube and repeat spin. This acts as an additional lysis step, is more vigorous and increases lysate yield. During second spin get liquid N2 and a fresh conical tube on ice.
(§5) After spin is complete, transfer supernatant (lysate) from microcentrifuge tubes into the 50 mL conical tube and keep on ice. Repeat steps 10-14 for all other cell pellets until completed. Once all cell lysate has been transferred to the 50 mL conical tube pipet to mix so the solution is homogenous. Transfer 1 mL of lysate into batch-labeled microcentrifuge tubes and flash freeze in liquid nitrogen. Be sure to pipet up and down to mix throughout transfer step. Place all tubes in the […] for long-term storage.
(§6) In vitro transcription-translation assay setup: Each assay includes a master mix containing lysate and shared components, a 96-well plate containing compound titrations for testing, a 96-well DNA plate with reporter constructs to be tested, 96-well skirted PCR plates, and 96-well flat-bottom, black, fluorescent assay plates. […]
On the technique in general: In a reporter assay the amount or activity of a reporter protein is the signal.

In assay [2] the test system is MYC. Description: In vitro transcription-translation (IVTT) reporter assay, MYC test sequence.
Excerpt: as §1, §2, §3, §4, §5, §6

Assay [3] deals with ALK. The assay is described as follows: In vitro transcription-translation (IVTT) reporter assay, ALK test sequence.
Excerpt: as §1, §2, §3, §4, §5, §6

A word on the IC50: it is the point on the concentration scale where inhibition reaches its midpoint. On to `COc1ccc(C[C@H]2NC[C@H](O)[C@H]2OC(=O)C2CC3(CNC3)C2)cc1` [V0108, (2R,3S,4S)-4-hydroxy-2-[(4-methoxyphenyl)methyl]pyrrolidin-3-yl 2-azaspiro[3.3]heptane-6-carboxylate], for which the IC50 in assay [1] and in assay [2] was over 30 µM throughout.
Regarding `COc1ccc(C[C@H]2NC[C@H](O)[C@H]2OC(=O)Cc2ccccc2)cc1` [V0110, (2R,3S,4S)-4-hydroxy-2-[(4-methoxyphenyl)methyl]pyrrolidin-3-yl 2-phenylacetate], the IC50 in assay [1] and in assay [2] was under 10 µM throughout.
`COc1ccc(C[C@H]2NC[C@H](O)[C@H]2OC(=O)[C@H]2CN(Cc3ccccc3)CC23CNC3)cc1` [V186718, (2R,3S,4S)-4-hydroxy-2-[(4-methoxyphenyl)methyl]pyrrolidin-3-yl (8R)-6-benzyl-2,6-diazaspiro[3.4]octane-8-carboxylate]: the IC50 in assay [1] and in assay [3] was over 30 µM throughout.
On to `COc1ccc(C[C@H]2NC[C@H](O)[C@H]2OC(=O)C2CCOCC2)cc1` [V186763, (2R,3S,4S)-4-hydroxy-2-[(4-methoxyphenyl)methyl]pyrrolidin-3-yl oxane-4-carboxylate], for which the IC50 in assay [1] and in assay [3] was over 30 µM throughout.
Regarding `COc1ccc(C[C@H]2NC[C@H](O)[C@H]2OC(=O)C2CC(O)C2)cc1` (some centres unmarked) [V186765], the IC50 in assay [1] was 10 to 20 µM; in assay [2], under 10 µM.
In the case of `COc1ccc(C[C@H]2NC[C@H](O)[C@H]2OC(=O)C2CCCS2)cc1` (stereo partly drawn) [V186774, (2R,3S,4S)-4-hydroxy-2-[(4-methoxyphenyl)methyl]pyrrolidin-3-yl thiolane-2-carboxylate], the IC50 in assay [1] is over 30 µM; in assay [2] it was 20 to 30 µM.
For the compound `CCCC(CCC)C(=O)O[C@@H]1[C@@H](O)CN[C@@H]1Cc1ccc(OC)cc1` [V186780], the half-maximal inhibitory concentration (IC50) in assay [1] is over 30 µM.
Take `CC(=O)O[C@@H]1[C@@H](O)CN[C@@H]1Cc1ccc(-c2ccccc2)cc1` [V186811]: the concentration for half-maximal inhibition (IC50) in assay [1] and in assay [2] was under 10 µM throughout.
As for `COc1ccc(C[C@H]2NC[C@H](O)[C@H]2OC(=O)[C@H]2CC[C@@H](O)CC2)cc1` [V186822, (2R,3S,4S)-4-hydroxy-2-[(4-methoxyphenyl)methyl]pyrrolidin-3-yl (1 s,4 s)-4-hydroxy cyclohexane-1-carboxylate], the IC50 in assay [1] is over 30 µM.
Regarding `COc1ccc(C[C@H]2NC[C@H](O)[C@H]2OC(=O)CCC2C(=O)N(C)CC(=O)N2C)cc1` (stereo partly drawn) [V186871, (2R,3S,4S)-4-hydroxy-2-[(4-methoxyphenyl)methyl]pyrrolidin-3-yl 3-(1,4-dimethyl-3,6-dioxopiperazin-2-yl)propanoate; trifluoroacetic acid], the IC50 in assay [1] was over 30 µM; in assay [2], 20 to 30 µM.
On the same counts, the results for `COc1ccc(C[C@H]2NC[C@H](O)[C@H]2OC(=O)Cc2ccc(F)cc2)cc1` [V187054, (2R,3S,4S)-4-hydroxy-2-[(4-methoxyphenyl)methyl]pyrrolidin-3-yl 2-(4-fluorophenyl) acetate] are under 10 µM and under 10 µM.
In the case of `COc1ccc(C[C@H]2NC[C@H](O)[C@H]2OC(=O)Cc2ccc(F)c(Cl)c2)cc1` [V187164, (2R,3S,4S)-4-hydroxy-2-[(4-methoxyphenyl)methyl]pyrrolidin-3-yl 2-(3-chloro-4-fluorophenyl)acetate; trifluoroacetic acid], the IC50 in assay [1] and in assay [2] was under 10 µM in each case.
In the case of `COc1ccc(C[C@H]2NC[C@H](O)[C@H]2OC(=O)COC2CC2)cc1` [V187169, (2R,3S,4S)-4-hydroxy-2-[(4-methoxyphenyl)methyl]pyrrolidin-3-yl 2-cyclopropoxyacetate; trifluoroacetic acid], the IC50 in assay [1] and in assay [2] was under 10 µM throughout.
Regarding `COc1ccc(C[C@H]2NC[C@H](O)[C@H]2OC(=O)Cc2ccc(CC(C)C)cc2)cc1` [V187182, (2R,3S,4S)-4-hydroxy-2-[(4-methoxyphenyl)methyl]pyrrolidin-3-yl 2-[4-(2-methylpropyl)phenyl]acetate; trifluoroacetic acid], the IC50 in assay [3] was 10 to 20 µM; in assay [2] it was over 30 µM.
